Patent publication US12352767B2, “Method of treating cognitive decline associated with neurological diseases based on a decrease in FLT4 expression or activity” (University of Virginia Patent Foundation, priority 2018, dated 2025)

What was measured:
[1] = tested on: brain hippocampus and cortex; assay: T1-weighted MRI of brain influx of i.c.m. gadolinium, Lymph4D analysis; format: in vivo, mice
Source text: Measurement of gadolinium influx rate and modeling of tracer advection-diffusion within the brain were achieved using Lymph4D, a software developed in-house and available for revision purposes on the following link on the world wide web: viva-lab.ece.virginia.edu/lymph4d. To allow for a direct comparison between the different conditions, the MRI stacks Si(x, y, z, t) of the imaged mice (4 vehicle and 4 Visudyne) were aligned to a Visudyne stack V1(x, y, z, t), chosen as reference. Before proceeding with the automated registration in the (x, y) plane, the stacks were manually aligned along the z (sagittal) direction, to ensure the correspondence between (x, y) (transversal plane) slices, and cropped both in the z and t (time) direction, to ensure that each set of coordinates (x, y, z, t) contained meaningful data. To optimize the slice alignment in the (x, y) plane, scale pyramids (Adelson, E. H., Anderson, C. H., Bergen, J. R., Burt, P. J. & Ogden, J. M. Pyramid methods in image processing. RCA engineer 29, 33-41, (1984).) (3 levels deep) were computed for both the image to be registered and the reference. Starting from the coarser scale, the optimal non-reflective transformation matrix (restricted to translation, rotation, and scaling) was evaluated by using an iterative process based on the steep gradient descent method with a mean square error (MSE) cost function. After reaching algorithm convergence at the largest scale, or the maximum number of allowed iterations, the alignment was refined using progressively finer scales. A linear interpolation mapping was then used to reconstruct the image registered using the optimized transformation matrix. The following alignment strategy was used. Given a stack Si to be aligned to V1, for every slice zj(t)=Si(x, y, zj, t) at a given location in the sagittal direction (z=zj), the optimal transformation matrix was evaluated at every available time (t) and the quality (MSE) of the resulting alignment measured. […] Also, after the alignment, contrast measurement, providing the difference between the maximum and the minimum values observed along the temporal direction during the experiment duration (variability in tracer signal intensity over time), was evaluated for a given (x, y, z) location in the S; stack using: […]
The model was discretized using the forward-time central-space (FTCS) finite difference method (Ferziger, J. H. & Perić, M. Finite Difference Methods. In: Computational Methods for Fluid Dynamics. 3rd edition, 39-69, Springer, Berlin, Heidelberg, (2002).) after the following assumptions. The concentration (x, t) was considered proportional to the measured MRI signal intensity. […]

meningeal immune cells = assay: Flow cytometry of meningeal immune cell populations; format: in vivo; details: 5xFAD mice
Protocol: Individual meninges were immediately dissected from the mouse's skull cap and digested 15 min at 37° C. with 1.4 U/ml of Collagenase VIII (Sigma Aldrich) and 35 U/ml of DNAse I (Sigma Aldrich) in complete media consisting of DMEM (Gibco) with 2% FBS (Atlas Biologicals), 1% L-Glutamine (Gibco), 1% penicillin/streptomycin (Gibco), 1% Sodium pyruvate (Gibco), 1% non-essential amino-acid (Gibco) and 1.5% Hepes (Gibco). […] Cell viability was determined by using the Zombie Aqua™ Fixable Viability Kit following the manufacturer's instructions (BioLegend). […] Fluorescence data was collected with a Gallios™ Flow Cytometer (Beckman Coulter, Inc.) then analyzed using FlowJo software (Tree Star, Inc.). […] An aliquot of unstained cells of each sample was counted using Cellometer Auto2000 (Nexcelor) to provide accurate counts for each population. […]

[2] = tested on: intracranial vasculature, blood-brain barrier, brain ventricles; details: mouse, in vivo
Protocol: All MRI acquisitions were performed at the University of Virginia Molecular Imaging Core facilities in a 7T Clinscan system (Bruker, Ettlingen, Germany) equipped with a 30 mm diameter cylindrical RF Coil. For analysis of mouse intracranial vascular structure, mice were placed in the 7T Clinscan system under light anaesthesia with isoflurane (1-1.25% in oxygen). Structural imaging data of intracranial arteries (magnetic resonance angiography or MRA) was acquired with a high-resolution 3D isotropic Spiral Cine Phase Contrast (SCPC) technique: repetition time (TR)=15 ms, echo time (TE)=0.63 ms, field of view (FOV)=25×25 mm, slice thickness=0.01 mm, number of sagittal slices=160, number of averages per phase-encode step (NEX)=1 and flip angle (FA)=20°. Total imaging time was of about 15 min per mouse. Structural imaging data of intracranial veins (magnetic resonance venography or MRV) was acquired with a high-resolution 3D isotropic SCPC technique with a saturation band positioned caudal to the slices, in order to saturate the arterial signal: TR=17 ms, TE=4.54 ms, FOV=17×26 mm, slice thickness=0.3 mm, number of sagittal slices=160, NEX=2 and FA=90°. Total imaging time was of about 13 min per mouse. Vascular volume and diameters were quantified using semi-automatic segmentation tools provided in the OsiriX software. For analysis of mouse brain ventricular volume, mice were placed in the 7T Clinscan system under light anaesthesia with isoflurane and structural imaging data were acquired with a high-resolution 3D isotropic T2-weighted SPACE technique with the following parameters: TR=3000 ms, TE=139 ms, FOV=26×20.5 mm, slice thickness=0.13 mm, number of slices=160 and NEX=3, requiring a total acquisition time of about 16 min per mouse. Ventricular volumes were quantified using semi-automatic segmentation tools provided in the OsiriX software.
Initially, a pre-contrast image was acquired after placing the mice in the 7T Clinscan system under light anaesthesia with isoflurane. Gadobenate dimeglumine (gadolinium or Gd, MultiHance, Bracco Diagnostics, Princeton, New Jersey) at 0.3 mmol/kg was then injected intravenously (i.v.), through a catheter inserted in the tail vein. To assess the rate of influx of a CSF tracer into the brain, mice were anaesthetized by i.p. injection of ketamine and xylazine in saline and an i.c.m. injection of 5 μL of Gd at a concentration of 25 mM in saline was performed. […] The mice were placed in the MRI apparatus and maintained under light anaesthesia with isoflurane. For MRI acquisition, maximum gradient strength of the system was 500 mT/m and the peak slew rate achievable was 6667 mT/m/ms. After i.v. injection of Gd or 10 min after injecting gadolinium into the CSF, a series of post-contrast T1-weighted images were taken through the head with the following parameters: TR=500 ms, TE=11 ms, FOV=20×20 mm with a 192×192 matrix (104 μm×104 μm resolution), slice thickness=0.7 mm, number of slices=22 and NEX=2. For i.v. Gd injection 5 post-contrast images were acquired requiring about 16 min per mouse (each sequence taken every 194 s). For brain influx of Gd injected into the CSF, the total acquisition time was of about 52 min per mouse (194 s×16 sequences per mouse), meaning that T1 images were acquired for approximately 1 hour post-injection.

## verteporfin [Visudyne]
[1]; 7 days after Visudyne/photoconversion, Gd 25 mM i.c.m., 16 MRI sequences (~52 min), vs vehicle
  Gd signal gain in hippocampus and cortex: significantly lower
[1]; Visudyne-treated mice, over ~52 min
  contrast in Gd signal intensity in the ventricles: higher contrast in signal intensity
[1]; after meningeal lymphatic ablation with Visudyne, advection-diffusion model in Lymph4D
  isotropic diffusion coefficient of Gd in the brain: lower coefficient values
[1]; one week after Visudyne/photoconversion, Gd 25 mM i.c.m., vs vehicle/photoconversion
  Gd signal intensity gain (relative to sequence 1) in the brain cortex: significant decrease
Meningeal immune cells; 1.5 months Visudyne/photoconversion vs both control groups
  number of macrophages in the meninges: significant increase
Meningeal immune cells; Visudyne group (no photoconversion) compared to Visudyne/photoconversion group
  neutrophils in the meninges: significant increase
[2]
  arterial vessel volume: no significant changes between groups
  basilar artery diameter: no significant changes between groups
  structure of major intracranial veins and arteries: not altered
  superior sagittal sinus (SSS) diameter: no significant changes between groups
  venous vessel volume: no significant changes between groups
